Assay results published in EP1316317A1, “Hydrosoluble mixtures of cyproterone and/or an ester of it, processes to obtain them and uses thereof” (University of Liege, priority 2001, dated 2003).
“And” between values parts separate entries of the source, which are not always exact repeats. Equal entries are not always repeated.

Columns and labels:
[1] = Adsorption of CPA on cellulose and PVDF filters (recovery after filtration); assay type: physicochemical; settings: CPA 2 µg/ml (100 µg/ml diluted 50-fold), CD 10 mM
Protocol: Les complexes ont été préparés en diluant 50 fois une solution mère de CPA à 100 µg/ml dans un mélange eau/acétonitrile (ACN) 50/50, avec une solution aqueuse de cyclodextrine à 10 mM. Les différentes cyclodextrines utilisées sont la β-CD, la γCD, l'HPβCD, l'HPγCD et la RMβCD. Ces échantillons sont agités au vortex pendant au moins 1 minute. Etant donné la faible proportion de CPA par rapport à la concentration en cyclodextrine et le CPA étant déjà solubilisé dans le milieu, il n'est pas nécessaire d'agiter 24 heures à 25°C pour obtenir le complexe, ce dernier étant formé très rapidement.
Une solution de référence contenant seulement du CPA est préparée en diluant 50 fois la solution mère de CPA à 100 µg/ml dans un mélange eau/acétonitrile 50/50, avec de l'eau purifiée.
Chaque essai est répété à trois reprises. Ces échantillons sont ensuite filtrés en partie sur filtre en ester de cellulose et en partie sur filtre en PVDF. Les échantillons sont dosés avant et après filtration de façon à pouvoir calculer le pourcentage de récupération après filtration.

[2] = Stability of CPA in aqueous solution, alone or as complex with RMβCD (HPLC); assay type: physicochemical
Protocol: Les complexes sont formés par ajout de 2 ml de solution aqueuse de RMβCD à 30 mg de CPA. Des solutions de RMβCD à différentes concentrations ont été utilisées: 12,5; 25; 50; 100 et 200 mM. Après agitation pendant 24 heures à 25°C, ces solutions sont filtrées sur filtre en PVDF de 0,45 µm (Millipore, Millex HV 0,45 µm).
Les solutions de référence de CPA sont préparées en ajoutant 2 ml de solution aqueuse à 30 mg de CPA. Après agitation pendant 24 heures à 25°C, ces solutions sont filtrées sur filtre en PVDF de 0,45 µm (Millipore, Millex HV 0,45 µm).
(§1) Les échantillons sont conservés dans des conditions ambiantes (20°C) pendant 3 mois.
La concentration en CPA contenu dans les solutions de CPA seul ou sous forme de complexe est dosée par HPLC au temps 0, après 1 mois et après 3 mois.
(§2) Les conditions chromatographiques sont telles qu'utilisées précédemment.

[3] = Stability of CPA in aqueous solution, alone or as complex with βCD (HPLC); assay type: physicochemical
Protocol: Un complexe est formé par ajout de 2 ml de solution aqueuse de βCD 10 mM à 20 mg de CPA. Après agitation pendant 24 heures à 25°C, ces solutions sont filtrées sur filtre en PVDF de 0,45 µm (Millipore, Millex HV 0,45 µm). La formation du complexe est effectuée sur 8 échantillons différents.
Les solutions de référence de CPA sont préparées en ajoutant 2 ml de solution aqueuse à 20 mg de CPA. Après agitation pendant 24 heures à 25°C, ces solutions sont filtrées sur filtre en PVDF de 0,45 µm. 8 échantillons sont préparés.
as §1
La concentration en CPA contenue dans les solutions de CPA seul ou sous forme de complexe est dosée par HPLC au temps 0, après 1 mois et après 3 mois.
L'appareillage et les conditions chromatographiques sont ceux tels qu'utilisés dans l'Exemple 3.

[4] = Stability of CPA in alkaline medium (stress conditions), alone or complexed with CDs (HPLC); assay type: physicochemical; settings: CD 100 mM
Protocol: Les complexes sont préparés en ajoutant 2 ml de solution aqueuse de CD à 20 mg de CPA. Les solutions de CD utilisées pour préparer ces complexes sont des solutions de HPβCD, de HPγCD ou de RMβCD à une concentration de 100 mM. Après agitation pendant 24 heures à 25°C, ces solutions sont filtrées sur filtre en PVDF de 0,45 µm (Millipore, Millex HV 0,45 µm).
Les solutions de référence de CPA sont préparées en ajoutant 2 ml de solution aqueuse à 20 mg de CPA. Après agitation pendant 24 heures à 25°C, ces solutions sont filtrées sur filtre en PVDF de 0,45 µm (Millipore, Millex HV 0,45 µm).
Chaque essai est répété à 3 reprises et les échantillons sont conservés dans des étuves à température contrôlée à 25°C pendant 1 mois.
La concentration en CPA contenu dans les solutions de CPA seul ou sous forme de complexe est dosée par HPLC au temps 0 et après 1 mois et le pH des solutions est mesuré après 1 mois.
as §2
Après 1 mois, la libération de substances alcalines provenant des flacons a communiqué un pH alcalin aux solutions. Ce pH a été mesuré et varie entre 8 et 9 dans les différentes solutions. Ce pH alcalin a provoqué la dégradation de l'acétate de cyprotérone, par hydrolyse de la fonction ester.

[5] = water; background statement, no method given; cited from earlier work
[6] = Phase-solubility diagram of CPA in aqueous cyclodextrin solutions (excess CPA, HPLC assay of filtrate); assay type: physicochemical; settings: for Concentration en CPA (Solubilité du CPA en présence de HPβCD) / Concentration en CPA (Solubilité du CPA en présence de HPγCD) / Concentration en CPA (Solubilité du CPA en présence de RMβCD) / Concentration en CPA (Solubilité du CPA en présence de SBEβCD) / Concentration en CPA (Solubilité du CPA en présence de βCD) / Concentration en CPA (Solubilité du CPA en présence de γCD): 24 h at 25°C
Protocol: Les diagrammes de solubilité sont effectués en ajoutant un excès de CPA à des solutions de CD de concentration croissante. Après 24 heures d'agitation dans des bains thermostatisés à 25°C, ces solutions sont filtrées et la quantité de CPA solubilisée est dosée par HPLC.
Pesée de minimum 30 mg de CPA et ajout de 2 ml de solution de CD. Pour chaque concentration de CD, les essais sont répétés au moins deux fois. Des essais sont également effectués avec une solution aqueuse sans CD.
Les échantillons sont mis en agitation dans des bains thermostatisés à 25°C pendant 24 heures. Ensuite, ces échantillons sont filtrés sur filtre en polyvinyldifluoridène (PVDF) de 0,45 µm (Millipore, Millex HV 0,45 µm) et la concentration de CPA dans les filtrats est dosée par HPLC.
• Echantillonneur automatique Merck L-7200, Détecteur UV Merck L-7400, Pompe Merck L-7100 et intégrateur Merck D-2500.
• Colonne : Lichrospher RP18 (5 µm) 125 mm • Phase mobile : ACN/H2O 50/50 • Débit : 1,5 ml/min • Température : 25°C • Longueur d'onde : 282 nm • Etalon interne : propylparaben.

[7] = CPA concentration at time 0, 1440 min

## acétate de cyprotérone [CPA]
[1]; PVDF filter
  Pourcentage de CPA récupéré après filtration sur PVDF, Moyenne: 88,7%
[1]; cellulose filter
  Pourcentage de CPA récupéré après filtration sur acétate de cellulose, Moyenne: 2,9%
[2]; CPA concentration after 1 month at ambient conditions (20°C)
  Conc. t1: 2,2 µg/ml
[2]; [7]
  Conc. t0: 2,7 µg/ml
[2]; CPA remaining after 1 month at 20°C, 43800 min
  Pourcentage t1 mois: 83,7%
[2]; CPA remaining after 3 months at 20°C, 131400 min
  Pourcentage t3 mois: 77,1%
[3]; after 1 month at ambient conditions (20°C)
  CPA retrouvé après 1 mois, Conc.: 2,2 µg/ml
[3]; after 1 month at ambient conditions (20°C), relative to time 0, 43800 min
  CPA retrouvé après 1 mois, Pourcentage moyen CPA: 84,6%
[3]; after 3 months at ambient conditions (20°C)
  CPA retrouvé après 3 mois, Conc.: 2,1 µg/ml
[3]; after 3 months at ambient conditions (20°C), relative to time 0, 131400 min
  CPA retrouvé après 3 mois, Pourcentage moyen CPA: 79,3%
[3]; time 0, βCD 10 mM for the complex, n=8, 1440 min
  CPA au temps 0, Conc.: 2,6 µg/ml
[4]; CPA concentration after 1 month at 25°C, alkaline pH 8 to 9
  Conc. t1 mois: 0,4 µg/ml
[4]; [7]
  Conc. t0: 2,3 µg/ml
[4]; after 1 month at 25°C, alkaline pH 8 to 9, 43800 min
  Pourcentage CPA après 1 mois: 17,6%
[5]
  solubilité de l'acétate de cyprotérone dans l'eau: ~2 µg/mL
[6]; HPβCD 25 mM
  Concentration en CPA (Solubilité du CPA en présence de HPβCD): 308,0 µg/ml
[6]; HPβCD 50 mM
  Concentration en CPA (Solubilité du CPA en présence de HPβCD): 629,9 µg/ml
[6]; HPβCD 100 mM
  Concentration en CPA (Solubilité du CPA en présence de HPβCD): 1188,6 µg/ml
[6]; HPβCD 200 mM
  Concentration en CPA (Solubilité du CPA en présence de HPβCD): 2648,2 µg/ml
[6]; HPβCD 12,5 mM
  Concentration en CPA (Solubilité du CPA en présence de HPβCD): 147,1 µg/ml
[6]; HPγCD 25 mM
  Concentration en CPA (Solubilité du CPA en présence de HPγCD): 282,5 µg/ml
[6]; HPγCD 50 mM
  Concentration en CPA (Solubilité du CPA en présence de HPγCD): 578,9 µg/ml
[6]; HPγCD 100 mM
  Concentration en CPA (Solubilité du CPA en présence de HPγCD): 1512,0 µg/ml
[6]; HPγCD 200 mM
  Concentration en CPA (Solubilité du CPA en présence de HPγCD): 4291,1 µg/ml
[6]; HPγCD 12,5 mM
  Concentration en CPA (Solubilité du CPA en présence de HPγCD): 118,7 µg/ml
[6]; RMβCD 25 mM
  Concentration en CPA (Solubilité du CPA en présence de RMβCD): 430,9 µg/ml
[6]; RMβCD 50 mM
  Concentration en CPA (Solubilité du CPA en présence de RMβCD): 1169,9 µg/ml
[6]; RMβCD 100 mM
  Concentration en CPA (Solubilité du CPA en présence de RMβCD): 3222,1 µg/ml
[6]; RMβCD 200 mM
  Concentration en CPA (Solubilité du CPA en présence de RMβCD): 9598,7 µg/ml
[6]; RMβCD 12,5 mM
  Concentration en CPA (Solubilité du CPA en présence de RMβCD): 176,9 µg/ml
[6]; SBEβCD 25 mM
  Concentration en CPA (Solubilité du CPA en présence de SBEβCD): 461,8 µg/ml
[6]; SBEβCD 50 mM
  Concentration en CPA (Solubilité du CPA en présence de SBEβCD): 860,9 µg/ml
[6]; SBEβCD 100 mM
  Concentration en CPA (Solubilité du CPA en présence de SBEβCD): 1475,2 µg/ml
[6]; SBEβCD 200 mM
  Concentration en CPA (Solubilité du CPA en présence de SBEβCD): 2034,1 µg/ml
[6]; SBEβCD 12,5 mM
  Concentration en CPA (Solubilité du CPA en présence de SBEβCD): 243,9 µg/ml
[6]; water without cyclodextrin, 24 h agitation at 25°C, 1440 min
  solubilité du CPA sans cyclodextrine: < 3 µg/ml and 2,6 µg/ml
[6]; βCD 5 mM
  Concentration en CPA (Solubilité du CPA en présence de βCD): 28,8 µg/ml
[6]; βCD 10 mM
  Concentration en CPA (Solubilité du CPA en présence de βCD): 56,7 µg/ml
[6]; βCD 15 mM
  Concentration en CPA (Solubilité du CPA en présence de βCD): 86,5 µg/ml
[6]; γCD 25 mM
  Concentration en CPA (Solubilité du CPA en présence de γCD): 436,6 µg/ml
[6]; γCD 50 mM
  Concentration en CPA (Solubilité du CPA en présence de γCD): 1041,0 µg/ml
[6]; γCD 100 mM
  Concentration en CPA (Solubilité du CPA en présence de γCD): 2368,9 µg/ml
[6]; γCD 200 mM (so in the source)
  Concentration en CPA (Solubilité du CPA en présence de γCD): 2266,8 µg/ml
[6]; γCD 12,5 mM
  Concentration en CPA (Solubilité du CPA en présence de γCD): 195,2 µg/ml
